# In patent publication US9474275B2, “Cyanoenamines and their use as fungicides” (priority 2010, dated 2016):
# System: Phytophthora infestans
# Assay type: in vivo
# Settings: tomato plants, preventive spray, 500 ppm of active ingredient, evaluated 7 days after inoculation; 0% = untreated control, 100% = no disease
row,Compound,efficacy
1,CCCC(=O)C(C#N)=C(NC(C)C(C)OC)c1cccnc1Cl (mixture of isomers) [Compound 114],95%
2,CCCC(=O)C(C#N)=C(NC(C)C1=NOCC1)c1cccnc1Cl (racemic) [Compound 100],95%
3,CCCC(=O)C(C#N)=C(NC(C)C1(C)CC1)c1cccnc1Cl (racemic) [Compound 103],95%
4,CCCC(=O)C(C#N)=C(NC(C)C1CCC1)c1cccnc1Cl (racemic) [Compound 104],95%
5,C#CC(C)NC(=C(C#N)C(=O)CCC)c1cccnc1Cl (racemic) [Compound 112],83%
6,CC#CC(C)NC(=C(C#N)C(=O)CCC)c1cccnc1Cl (racemic) [Compound 113],85%
7,CCCC(=O)C(C#N)=C(NC(C)CCc1ccccc1)c1cccnc1Cl (racemic) [Compound 116],85%
8,CCCC(=O)C(C#N)=C(NC(C)CCC)c1cccnc1Cl (racemic) [Compound 117],80%
9,CCCC(=O)C(C#N)=C(NC(C)C1(C)CC1)c1cn(C)nc1C(F)F (racemic) [Compound 121],93%
10,CCCC(=O)C(C#N)=C(NC(C)CC)c1cn(C)nc1C(F)F (racemic) [Compound 122],90%
11,C#CC(C)NC(=C(C#N)C(=O)CCC)c1cn(C)nc1C(F)F (racemic) [Compound 124],93%
12,CC#CC(C)NC(=C(C#N)C(=O)CCC)c1cn(C)nc1C(F)F (racemic) [Compound 125],75%
13,CCCC(=O)C(C#N)=C(NC(C)CCC)c1cn(C)nc1C(F)F (racemic) [Compound 129],75%
14,CCCC(=O)C(C#N)=C(NC(C)CC1CC1)c1cn(C)nc1C(F)F (racemic) [Compound 130],85%
15,CCCC(=O)C(C#N)=C(NC(C)C(=O)OCC)c1cn(C)nc1C(F)F (racemic) [Compound 131],80%
16,CCCC(=O)C(C#N)=C(NC(C)c1ccco1)c1cn(C)nc1C(F)F (racemic) [Compound 132],90%
17,COCC(=O)C(C#N)=C(NC(C)c1ccccn1)c1cccnc1Cl (stereo not drawn) [Compound 1],93%
18,COCC(=O)C(C#N)=C(NC(C)c1nccs1)c1cccnc1Cl (stereo not drawn) [Compound 77],93%

# System: not given
# Settings: method [a]: LC-MS at pH 2.7, 0.1% formic acid in water / acetonitrile, linear gradient 10% to 95% acetonitrile
row,Compound,LogP
1,CCCC(=O)C(C#N)=C(NC(C)C(C)OC)c1cccnc1Cl (mixture of isomers) [Compound 114],3.02^[a]
2,CCCC(=O)C(C#N)=C(NC(C)c1ccco1)c1cccnc1Cl (racemic) [Compound 99],3.31^[a]
3,CCCC(=O)C(C#N)=C(NC(C)C1=NOCC1)c1cccnc1Cl (racemic) [Compound 100],2.47^[a]
4,CCCC(=O)C(C#N)=C(NC(C)C1(C)CC1)c1cccnc1Cl (racemic) [Compound 103],3.57^[a]
5,CCCC(=O)C(C#N)=C(NC(C)C1CCC1)c1cccnc1Cl (racemic) [Compound 104],3.81^[a]
6,CCCC(=O)C(C#N)=C(NC(C)c1nc(C)c(C)s1)c1cccnc1Cl (racemic) [Compound 105],3.02^[a]
7,C#CC(C)NC(=C(C#N)C(=O)CCC)c1cccnc1Cl (racemic) [Compound 112],2.9^[a]
8,CC#CC(C)NC(=C(C#N)C(=O)CCC)c1cccnc1Cl (racemic) [Compound 113],3.09^[a]
9,CCCC(=O)C(C#N)=C(NC(C)CC(C)C)c1cccnc1Cl (racemic) [Compound 115],3.99^[a]
10,CCCC(=O)C(C#N)=C(NC(C)CCc1ccccc1)c1cccnc1Cl (racemic) [Compound 116],4.16^[a]
11,CCCC(=O)C(C#N)=C(NC(C)CCC)c1cccnc1Cl (racemic) [Compound 117],3.65^[a]
12,CCCC(=O)C(C#N)=C(NC(C)CC1CC1)c1cccnc1Cl (racemic) [Compound 118],3.63^[a]
13,CCCC(=O)C(C#N)=C(NC(C)C1(C)CC1)c1cn(C)nc1C(F)F (racemic) [Compound 121],3.33^[a]
14,CCCC(=O)C(C#N)=C(NC(C)CC)c1cn(C)nc1C(F)F (racemic) [Compound 122],2.98^[a]
15,CCCC(=O)C(C#N)=C(NC(C)c1nc(C)c(C)s1)c1cn(C)nc1C(F)F (racemic) [Compound 123],2.92^[a]
16,C#CC(C)NC(=C(C#N)C(=O)CCC)c1cn(C)nc1C(F)F (racemic) [Compound 124],2.66^[a]
17,CC#CC(C)NC(=C(C#N)C(=O)CCC)c1cn(C)nc1C(F)F (racemic) [Compound 125],2.98^[a]
18,CCCC(=O)C(C#N)=C(NC(C)CC(C)C)c1cn(C)nc1C(F)F (racemic) [Compound 127],3.63^[a]
19,CCCC(=O)C(C#N)=C(NC(C)CCc1ccccc1)c1cn(C)nc1C(F)F (racemic) [Compound 128],3.83^[a]
20,CCCC(=O)C(C#N)=C(NC(C)CCC)c1cn(C)nc1C(F)F (racemic) [Compound 129],3.33^[a]
21,CCCC(=O)C(C#N)=C(NC(C)CC1CC1)c1cn(C)nc1C(F)F (racemic) [Compound 130],3.35^[a]
22,CCCC(=O)C(C#N)=C(NC(C)C(=O)OCC)c1cn(C)nc1C(F)F (racemic) [Compound 131],2.78^[a]
23,CCCC(=O)C(C#N)=C(NC(C)c1ccco1)c1cn(C)nc1C(F)F (racemic) [Compound 132],3.04^[a]
24,COCC(=O)C(C#N)=C(NC(C)c1ccccn1)c1cccnc1Cl (stereo not drawn) [Compound 1],1.78^[a]
25,CC(C)C(C)NC(=C(C#N)C(=O)C1(Cl)CC1)c1cccnc1Cl (stereo not drawn) [Compound 3],3.44^[a]
26,CC(C)C(C)NC(=C(C#N)C(=O)C1CCCCO1)c1cccnc1Cl (stereo not drawn) [Compound 6],3.00^[a]

row,Compound,LogP
1,CC(C)C(C)NC(=C(C#N)C(=O)C1CCCC1)c1cccnc1Cl (stereo not drawn) [Compound 7],4.23^[a]
2,CC(NC(=C(C#N)C(=O)Cc1ccccc1)c1cccnc1Cl)C1CC1 (stereo not drawn) [Compound 8],3.23^[a]
3,CC(C)C(=O)C(C#N)=C(NC(C)C(C)C)c1cccnc1Cl (stereo not drawn) [Compound 9],3.60^[a]
4,CC(NC(=C(C#N)C(=O)C1CCC1)c1cccnc1Cl)C1CC1 (stereo not drawn) [Compound 12],3.44^[a]
5,CC(C)C(C)NC(=C(C#N)C(=O)CN(C)C)c1cccnc1Cl (stereo not drawn) [Compound 13],1.39^[a]
6,CC(NC(=C(C#N)C(=O)C1CCCC1)c1cccnc1Cl)C1CC1 (stereo not drawn) [Compound 14],3.83^[a]
7,CNCC(=O)C(C#N)=C(NC(C)C(C)C)c1cccnc1Cl (stereo not drawn) [Compound 15],1.50^[a]
8,CC(C)OCC(=O)C(C#N)=C(NC(C)C(C)C)c1cccnc1Cl (stereo not drawn) [Compound 19],3.19^[a]
9,CC(NC(=C(C#N)C(=O)C1CCCC1)c1cn(C)nc1C(F)F)C1CC1 (stereo not drawn) [Compound 21],3.58^[a]
10,CCC(=O)C(C#N)=C(NC(C)C1CC1)c1cccnc1Cl (stereo not drawn) [Compound 22],2.88^[a]
11,CC(C)C(C)NC(=C(C#N)C(=O)Cc1ccccc1)c1cccnc1Cl (stereo not drawn) [Compound 29],3.85^[a]
12,CCCC(=O)C(C#N)=C(NC1CC1CC)c1cccnc1Cl (stereo not drawn) [Compound 31],3.51^[a]
13,CC(C)C(C)NC(=C(C#N)C(=O)CCl)c1cn(C)nc1C(F)F (stereo not drawn) [Compound 32],2.86^[a]
14,CC(C)C(C)NC(=C(C#N)C(=O)CN1CCCC1)c1cccnc1Cl (stereo not drawn) [Compound 35],1.52^[a]
15,CCC(F)(F)C(=O)C(C#N)=C(NC(C)C(C)C)c1cccnc1Cl (stereo not drawn) [Compound 37],3.55^[a]
16,CCCCC(=O)C(C#N)=C(NC1CC1CC)c1cccnc1Cl (stereo not drawn) [Compound 38],3.94^[a]
17,CC(C)C(C)NC(=C(C#N)C(=O)CNC1CC1)c1cccnc1Cl (stereo not drawn) [Compound 39],1.74^[a]
18,COCC(=O)C(C#N)=C(NC(C)C(C)C)c1cccnc1Cl (stereo not drawn) [Compound 41],2.48^[a]
19,CC(NC(=C(C#N)C(=O)C1CC1)c1cccnc1Cl)C1CC1 (stereo not drawn) [Compound 42],3.06^[a]
20,CCCC(=O)C(C#N)=C(NC(C)C1CC1)c1cccnc1Cl (stereo not drawn) [Compound 43],3.25^[a]
21,CC(C)C(C)NC(=C(C#N)C(=O)CCl)c1cccnc1Cl (stereo not drawn) [Compound 45],3.02^[a]
22,CSCC(=O)C(C#N)=C(NC(C)C(C)C)c1cccnc1Cl (stereo not drawn) [Compound 46],3.13^[a]
23,CC(C)C(C)NC(=C(C#N)C(=O)c1ccco1)c1cccnc1Cl (stereo not drawn) [Compound 48],3.11^[a]
24,COCC(=O)C(C#N)=C(NC(C)C1CC1)c1cccnc1Cl (stereo not drawn) [Compound 49],2.23^[a]
25,CNCC(=O)C(C#N)=C(NC(C)C(C)C)c1cn(C)nc1C(F)F (stereo not drawn) [Compound 50],1.60^[a]
26,CC(C)C(C)NC(=C(C#N)C(=O)C1CCCCC1)c1cccnc1Cl (stereo not drawn) [Compound 53],4.50^[a]

row,Compound,LogP
1,CC(NC(=C(C#N)C(=O)CC1CC1)c1cccnc1Cl)C1CC1 (stereo not drawn) [Compound 54],3.31^[a]
2,CC(NC(=C(C#N)C(=O)c1ccco1)c1cccnc1Cl)C1CC1 (stereo not drawn) [Compound 55],2.80^[a]
3,CCNCC(=O)C(C#N)=C(NC(C)C(C)C)c1cccnc1Cl (stereo not drawn) [Compound 57],1.68^[a]
4,CC(C)C(C)NC(=C(C#N)C(=O)CNC1CC1)c1cn(C)nc1C(F)F (stereo not drawn) [Compound 58],1.78^[a]
5,CCNCC(=O)C(C#N)=C(NC(C)C(C)C)c1cn(C)nc1C(F)F (stereo not drawn) [Compound 60],1.63^[a]
6,CC(C)C(C)NC(=C(C#N)C(=O)C1CC1C)c1cccnc1Cl (stereo not drawn) [Compound 61],3.80^[a]
7,COCCC(=O)C(C#N)=C(NC(C)C(C)C)c1cccnc1Cl (stereo not drawn) [Compound 65],2.78^[a]
8,CC(C)C(C)NC(=C(C#N)C(=O)CN1CCCC1)c1cn(C)nc1C(F)F (stereo not drawn) [Compound 66],1.31^[a]
9,COC(C)C(=O)C(C#N)=C(NC(C)C(C)C)c1cccnc1Cl (stereo not drawn) [Compound 67],2.70^[a]
10,CCC(=O)C(C#N)=C(NC1CC1CC)c1cccnc1Cl (stereo not drawn) [Compound 68],3.13^[a]
11,CCC(=O)C(C#N)=C(NC(C)C1CC1)c1cn(C)nc1C(F)F (stereo not drawn) [Compound 69],2.73^[a]
12,CC(C)C(C)NC(=C(C#N)C(=O)C1CC1)c1cccnc1Cl (stereo not drawn) [Compound 71],3.39^[a]
13,CC(C)C(C)NC(=C(C#N)C(=O)CCCCl)c1cccnc1Cl (stereo not drawn) [Compound 74],3.63^[a]
14,CCC(C)C(=O)C(C#N)=C(NC(C)C(C)C)c1cccnc1Cl (stereo not drawn) [Compound 76],3.9^[a]
15,CC(C)C(C)NC(=C(C#N)C(=O)C1CCCC1)c1cn(C)nc1C(F)F (stereo not drawn) [Compound 78],3.81^[a]
16,CCCC(=NOC)C(C#N)=C(NC(C)C(C)C)c1cn(C)nc1C(F)F (stereo not drawn) [Compound 79],4.24^[a]
17,COCC(=O)C(C#N)=C(NC(C)c1nccs1)c1cn(C)nc1C(F)F (stereo not drawn) [Compound 82],1.76^[a]
18,CCCC(=O)C(C#N)=C(NC(C)C(C)C)c1cc(C)nn1C(F)F (stereo not drawn) [Compound 92],3.92^[a]
19,Cc1cc(C(NC(C)C(C)C)=C(C#N)C(=O)CC2CC2)n(C(F)F)n1 (stereo not drawn) [Compound 93],3.87^[a]
20,CCCC(=O)C(C#N)=C(NC(C)c1nccs1)c1cc(C)nn1C(F)F (stereo not drawn) [Compound 94],3.11^[a]
21,CCCC(=O)C(C#N)=C(NC(C)COC)c1cc(C)nn1C(F)F (stereo not drawn) [Compound 95],3.13^[a]
22,COCC(C)NC(=C(C#N)C(=O)CC1CC1)c1cc(C)nn1C(F)F (stereo not drawn) [Compound 96],3.11^[a]
23,Cc1cc(C(NC(C)c2nccs2)=C(C#N)C(=O)CC2CC2)n(C(F)F)n1 (stereo not drawn) [Compound 97],3.09^[a]
24,CCCC(=O)C(C#N)=C(NC(C)Cc1ccccc1)c1cccnc1Cl (stereo not drawn) [Compound 108],3.83^[a]
25,CCCC(=O)C(C#N)=C(NC(C)C(=O)NC)c1cn(C)nc1C(F)F (stereo not drawn) [Compound 109],1.79^[a]
26,CCCC(=O)C(C#N)=C(NC(C)Cc1ccccc1)c1cn(C)nc1C(F)F (stereo not drawn) [Compound 111],3.55^[a]
